In patent publication EP2970215B1, “PYRROLIDINE DERIVATIVES, PHARMACEUTICAL COMPOSITIONS CONTAINING THEM, AND THEIR USE IN THERAPY” (AbbVie Deutschland GmbH & Co. KG, priority 2013, dated 2014):

Molecular target: T1, human GlyT1c transporter (Homo sapiens, UniProt P48067)
T1 construct: expressed in transfected cells; host or cells: CHO cells (recombinant; line hGlyT1c_5_CHO is named for the uptake assay)
T1 sequence (P48067 1-706): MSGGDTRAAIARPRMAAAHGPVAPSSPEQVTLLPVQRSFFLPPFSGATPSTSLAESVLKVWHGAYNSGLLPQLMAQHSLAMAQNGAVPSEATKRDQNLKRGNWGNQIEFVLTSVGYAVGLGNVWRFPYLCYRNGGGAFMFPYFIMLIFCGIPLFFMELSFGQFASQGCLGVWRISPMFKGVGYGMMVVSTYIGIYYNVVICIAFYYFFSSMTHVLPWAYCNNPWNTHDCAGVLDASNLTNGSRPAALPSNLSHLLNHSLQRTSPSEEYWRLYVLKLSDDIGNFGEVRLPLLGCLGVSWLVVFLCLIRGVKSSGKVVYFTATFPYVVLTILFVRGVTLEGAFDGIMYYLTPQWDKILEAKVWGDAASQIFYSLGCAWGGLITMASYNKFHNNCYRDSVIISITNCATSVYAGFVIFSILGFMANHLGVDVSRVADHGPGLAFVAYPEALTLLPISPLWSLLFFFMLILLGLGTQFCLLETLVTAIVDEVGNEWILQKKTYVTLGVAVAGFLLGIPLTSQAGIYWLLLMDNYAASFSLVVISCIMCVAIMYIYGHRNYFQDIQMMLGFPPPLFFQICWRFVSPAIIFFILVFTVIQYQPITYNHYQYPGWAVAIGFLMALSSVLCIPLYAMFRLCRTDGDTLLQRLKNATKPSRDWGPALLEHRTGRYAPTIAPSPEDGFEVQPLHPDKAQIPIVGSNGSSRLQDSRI
Experiment: Radioligand binding assay using recombinant CHO cell membranes expressing human GlyT1
Details: radioligand binding to human GlyT1c transporter-expressing membranes
Description: 2. Radioligand binding assays using recombinant CHO cell membranes expressing human GlyT1: […]

Row | Compound | Ki
1 | Cn1cnc(S(=O)(=O)N2C[C@@H](Nc3cc(C#N)ccc3Cl)[C@H](c3ccccc3)C2)c1 (relative stereo) [Example 81, 4-chloro-3-({trans-1-[(1-methyl-1H-imidazol-4-yl)sulfonyl]-4-phenylpyrrolidin-3-yl}amino)benzonitrile] | ≤ 10 µM
2 | Cc1ccc(C#N)cc1N[C@@H]1CN(S(=O)(=O)c2cn(C)cn2)C[C@H]1c1ccccc1 (relative stereo) [Example 82, 4-methyl-3-({trans-1-[(1-methyl-1H-imidazol-4-yl)sulfonyl]-4-phenylpyrrolidin-3-yl}amino)benzonitrile] | ≤ 10 µM
3 | Cc1c(C#N)cccc1N[C@@H]1CN(S(=O)(=O)c2cn(C)cn2)C[C@H]1c1ccccc1 (relative stereo) [Example 83, 2-methyl-3-({trans-1-[(1-methyl-1H-imidazol-4-yl)sulfonyl]-4-phenylpyrrolidin-3-yl}amino)benzonitrile] | ≤ 1 µM
4 | Cc1ccccc1N[C@@H]1CN(S(=O)(=O)c2cn(C)cn2)C[C@H]1c1ccc(F)cc1 (relative stereo) [Example 84, trans-4-(4-fluorophenyl)-1-[(1-methyl-1H-imidazol-4-yl)sulfonyl]-N-(2-methylphenyl)pyrrolidin-3-amine] | ≤ 1 µM
5 | Cc1cccc(N[C@@H]2CN(S(=O)(=O)c3cn(C)cn3)C[C@H]2c2ccc(F)cc2)c1 (relative stereo) [Example 85, trans-4-(4-fluorophenyl)-1-[(1-methyl-1H-imidazol-4-yl)sulfonyl]-N-(3-methylphenyl)pyrrolidin-3-amine] | ≤ 0.01 µM
6 | Cc1ccc(N[C@@H]2CN(S(=O)(=O)c3cn(C)cn3)C[C@H]2c2ccc(F)cc2)cc1 (relative stereo) [Example 86, trans-4-(4-fluorophenyl)-1-[(1-methyl-1H-imidazol-4-yl)sulfonyl]-N-(4-methylphenyl)pyrrolidin-3-amine] | ≤ 1 µM
7 | Cn1cnc(S(=O)(=O)N2C[C@@H](Nc3ccccc3C(F)(F)F)[C@H](c3ccc(F)cc3)C2)c1 (relative stereo) [Example 87, trans-4-(4-fluorophenyl)-1-[(1-methyl-1H-imidazol-4-yl)sulfonyl]-N-[2-(trifluoromethyl)phenyl]pyrrolidin-3-amine] | ≤ 10 µM
8 | Cn1cnc(S(=O)(=O)N2C[C@@H](Nc3ccc(C(F)(F)F)cc3)[C@H](c3ccc(F)cc3)C2)c1 (relative stereo) [Example 89, trans-4-(4-fluorophenyl)-1-[(1-methyl-1H-imidazol-4-yl)sulfonyl]-N-[4-(trifluoromethyl)phenyl]pyrrolidin-3-amine] | ≤ 0.1 µM
9 | Cn1cnc(S(=O)(=O)N2C[C@@H](Nc3ccccc3F)[C@H](c3ccc(F)cc3)C2)c1 (relative stereo) [Example 90, trans-N-(2-fluorophenyl)-4-(4-fluorophenyl)-1-[(1-methyl-1H-imidazol-4-yl)sulfonyl]pyrrolidin-3-amine] | ≤ 1 µM
10 | Cn1cnc(S(=O)(=O)N2C[C@@H](Nc3cccc(F)c3)[C@H](c3ccc(F)cc3)C2)c1 (relative stereo) [Example 91, trans-N-(3-fluorophenyl)-4-(4-fluorophenyl)-1-[(1-methyl-1H-imidazol-4-yl)sulfonyl]pyrrolidin-3-amine] | ≤ 0.1 µM
11 | Cn1cnc(S(=O)(=O)N2C[C@@H](Nc3ccc(F)cc3)[C@H](c3ccc(F)cc3)C2)c1 (relative stereo) [Example 92, trans-N,4-bis(4-fluorophenyl)-1-[(1-methyl-1H-imidazol-4-yl)sulfonyl]pyrrolidin-3-amine] | ≤ 0.1 µM
12 | Cn1cnc(S(=O)(=O)N2C[C@@H](Nc3ccccc3Cl)[C@H](c3ccc(F)cc3)C2)c1 (relative stereo) [Example 93, trans-N-(2-chlorophenyl)-4-(4-fluorophenyl)-1-[(1-methyl-1H-imidazol-4-yl)sulfonyl]pyrrolidin-3-amine] | ≤ 1 µM
13 | Cn1cnc(S(=O)(=O)N2C[C@@H](Nc3cccc(Cl)c3)[C@H](c3ccc(F)cc3)C2)c1 (relative stereo) [Example 94, trans-N-(3-chlorophenyl)-4-(4-fluorophenyl)-1-[(1-methyl-1H-imidazol-4-yl)sulfonyl]pyrrolidin-3-amine] | ≤ 0.01 µM
14 | Cn1cnc(S(=O)(=O)N2C[C@@H](Nc3ccc(Cl)cc3)[C@H](c3ccc(F)cc3)C2)c1 (relative stereo) [Example 95, trans-N-(4-chlorophenyl)-4-(4-fluorophenyl)-1-[(1-methyl-1H-imidazol-4-yl)sulfonyl]pyrrolidin-3 - amine] | ≤ 1 µM
15 | COc1ccc(N[C@@H]2CN(S(=O)(=O)c3cn(C)cn3)C[C@H]2c2ccccc2)cc1C#N (relative stereo) [Example 100, 2-methoxy-5-({trans-1-[(1-methyl-1H-imidazol-4-yl)sulfonyl]-4-phenylpyrrolidin-3-yl}amino)benzonitrile] | ≤ 10 µM
16 | Cc1cc(C#N)cc(N[C@@H]2CN(S(=O)(=O)c3cn(C)cn3)C[C@H]2c2ccccc2)c1 (relative stereo) [Example 101, 3-methyl-5-({trans-1-[(1-methyl-1H-imidazol-4-yl)sulfonyl]-4-phenylpyrrolidin-3-yl}amino)benzonitrile] | ≤ 1 µM
17 | Cn1cnc(S(=O)(=O)N2C[C@@H](NC(=O)c3cccc(C(F)(F)F)c3Cl)[C@H](c3ccccc3Cl)C2)c1 (relative stereo) [Example 115, 2-chloro-N-{trans-4-(2-chlorophenyl)-1-[(1-methyl-1H-imidazol-4-yl)sulfonyl]pyrrolidin-3-yl}-3-(trifluoromethyl)benzamide] | ≤ 0.1 µM
18 | CCS(=O)(=O)N1C[C@@H](NC(=O)c2cc(Cl)cc(Cl)c2)[C@H](c2ccccc2)C1 (relative stereo) [Example 123, 3,5-dichloro-N-[trans-1-(ethylsulfonyl)-4-phenylpyrrolidin-3-yl]benzamide] | ≤ 10 µM
19 | CCS(=O)(=O)N1C[C@@H](NC(=O)c2cccc(C(F)(F)F)c2Cl)[C@H](c2ccccc2)C1 (relative stereo) [Example 124, 2-chloro-N-[trans-1-(ethylsulfonyl)-4-phenylpyrrolidin-3-yl]-3-(trifluoromethyl)benzamide] | ≤ 10 µM

Continued, values first:

Row | Ki | Compound
20 | > 10 µM | CCCS(=O)(=O)N1C[C@@H](NC(=O)c2ccc(C(F)(F)F)cc2)[C@H](c2ccccc2)C1 (relative stereo) [Example 125, N-[trans-4-phenyl-1-(propylsulfonyl)pyrrolidin-3-yl]-4-(trifluoromethyl)benzamide]
21 | ≤ 10 µM | CCCS(=O)(=O)N1C[C@@H](NC(=O)c2cc(Cl)cc(Cl)c2)[C@H](c2ccccc2)C1 (relative stereo) [Example 126, 3,5-dichloro-N-[trans-4-phenyl-1-(propylsulfonyl)pyrrolidin-3-yl]benzamide]
22 | ≤ 10 µM | CCCS(=O)(=O)N1C[C@@H](NC(=O)c2cccc(C(F)(F)F)c2Cl)[C@H](c2ccccc2)C1 (relative stereo) [Example 127, 2-chloro-N-[trans-4-phenyl-1-(propylsulfonyl)pyrrolidin-3-yl]-3-(trifluoromethyl)benzamide]
23 | ≤ 10 µM | O=C(N[C@@H]1CN(S(=O)(=O)CC2CC2)C[C@H]1c1ccccc1)c1ccc(C(F)(F)F)cc1 (relative stereo) [Example 128, N-{trans-1-[(cyclopropylmethyl)sulfonyl]-4-phenylpyrrolidin-3-yl}-4-(trifluoromethyl)benzamide]
24 | > 10 µM | O=C(N[C@@H]1CN(S(=O)(=O)CC2CC2)C[C@H]1c1ccccc1)c1cc(Cl)cc(Cl)c1 (relative stereo) [Example 129, 3,5-dichloro-N-{trans-1-[(cyclopropylmethyl)sulfonyl]-4-phenylpyrrolidin-3-yl}benzamide]
25 | > 10 µM | O=C(N[C@@H]1CN(S(=O)(=O)CC2CC2)C[C@H]1c1ccccc1)c1cccc(C(F)(F)F)c1Cl (relative stereo) [Example 130, 2-chloro-N-{trans-1-[(cyclopropylmethyl)sulfonyl]-4-phenylpyrrolidin-3-yl}-3-(trifluoromethyl)benzamide]
26 | > 10 µM | CCS(=O)(=O)N1C[C@@H](Nc2cccc(C#N)c2)[C@H](c2ccccc2)C1 (relative stereo) [Example 131, 3-{[trans-1-(ethylsulfonyl)-4-phenylpyrrolidin-3-yl]amino}benzonitrile]
27 | ≤ 10 µM | CCCS(=O)(=O)N1C[C@@H](Nc2cccc(C#N)c2)[C@H](c2ccccc2)C1 (relative stereo) [Example 132, 3-{[trans-4-phenyl-1-(propylsulfonyl)pyrrolidin-3-yl]amino}benzonitrile]
28 | ≤ 10 µM | N#Cc1cccc(N[C@@H]2CN(S(=O)(=O)CC3CC3)C[C@H]2c2ccccc2)c1 (relative stereo) [Example 133, 3-({trans-1-[(cyclopropylmethyl)sulfonyl]-4-phenylpyrrolidin-3-yl}amino)benzonitrile]
29 | ≤ 10 µM | COc1ccc(S(=O)(=O)N2C[C@@H](NC(=O)c3ccc(C(F)(F)F)cc3)[C@H](c3ccccc3)C2)cc1 (relative stereo) [Example 134, N-{trans-1-[(4-methoxyphenyl)sulfonyl]-4-phenylpyrrolidin-3-yl}-4-(trifluoromethyl)benzamide]
